# Test results taken from the NIST ThermoML archive (doi:10.1016/j.jct.2008.06.003).
# ± gives the expanded uncertainty stated by the source.
# Legend:
# [1] = Crystal; for molar enthalpy of sublimation: 298.15 K, Static calorimetry
# [2] = Molar enthalpy of transition or fusion; conditions: Crystal; DSC
Structure (SMILES),molar enthalpy of sublimation [1] [kJ/mol],Molar enthalpy of transition or fusion [2] [kJ/mol],Normal melting temperature ([1]; DTA) [°C]
"O=C(O)C1COc2ccccc2O1 (centres undefined) [1,4-benzodioxan-2-carboxylic acid]",118 ± 4.2,–,–
"OCC1COc2ccccc2O1 (centres undefined) [1,4-benzodioxane-2-methanol]",107 ± 1.7,28.8 ± 0.63,89.2 ± 0.53
